Assays:
[1] = system: Drosophila larvae expressing i(CUG)480; experiment: Larval crawling assay in DM1 Drosophila; format: in vivo; details: 400 μM; untreated i(CUG)480 9 lines/min
From the text: To test the abilities of 2 and 9 to improve the locomotor behavior of Drosophila larvae, we used crawling assays (Nichols et al., J. Vis. Exp. 61, e3795 (2012); Lanson et al., Hum. Mol. Genet. 20, 2510-2523 (2011); Batlevi et al., Proc. Natl. Acad. Sci. U.S.A. 107, 742-747 (2010)). […] Those expressing i(CUG)480 (SEQ ID NO: 17) crossed only 9 lines/min (FIG. 9b). […] Importantly, the phenotypic improvement with both compounds was dose-dependent and 9 in all cases provided greater phenotypic reversal than did 2.
Drosophila lines were cultured in standard cornmeal medium supplemented with dry yeasts. Fly lines bearing UAS-(CTG)60 (SEQ ID NO: 5) and UAS-(CTG)480 (SEQ ID NO: 6) were kind gifts of Prof. Rubén Artero Allepuz (Universitat de València, Estudi General, Spain). The gmr-GAL4 and 24B-GAL4 lines were used to drive UAS transgene expression in eye and muscles respectively. Ligands 2 and 9 were dissolved in ddH2O and mixed with fly food. […]
Larval crawling assays were performed as described in Lanson et al (Hum. Mol. Genet. 20, 2510-2523 (2011)). […] The larvae were allowed to acclimate for a period of 1 min, and the total number of gridlines that the posterior end of the larvae passed in 1 min was determined Each set of experiment was repeated independently three times using larvae collected from separate genetic crosses.

[2] = system: insulin receptor (IR) minigene splicing; details: DM1 model cell cultures; cited from earlier work
MBNL1-CUGexp complex = details: previously reported; cited from earlier work
d(CTG.CAG)12 = experiment: Isothermal titration calorimetry, d(CTG.CAG)12; format: binding; details: 25° C., 20 mM MOPS pH 7.0, 300 mM NaCl
Procedure: To directly assess the DNA-targeting ability of 9, ITC experiments were performed with oligonucleotide analogs of the various trinucleotide repeat sequences (Table 1). […] This supports the idea that 9 inhibits the transcription of CTG^exp by stabilizing its hairpin structure. […] The in vitro transcription experiment using (CTG[…]CAG)74 (SEQ ID NOS 3-4, respectively) and compounds 2, 5-7, and 9 was repeated but with (CUG)16 (SEQ ID NO: 1) added as a competitor.
Isothermal titration calorimetry (ITC) measurements were performed at 25° C. on a MicroCal VP-ITC (MicroCal, Inc., Northampton, Mass.). A standard experiment consisted of titrating 10 μL of a 500 μM ligand solution from a […] syringe (rotating at 300 rpm) into a sample cell containing 1.42 mL of a 10 μM DNA or RNA solution. An ITC experiment consisted of 28 total injections (first injection was 5 μL, subsequent injections were 10 μL), with a 10 s duration per injection and delay of 380 s between injections. The initial delay prior to the first injection was 300 s. To derive the heat associated with each injection, the area under each isotherm (microcalories per second versus seconds) was determined by integration by the graphing program Origin 7.0 (MicroCal, Inc. Northampton, Mass.). […]

[3] = system: Drosophila bearing i(CUG)60; experiment: Treatment of control Drosophila bearing i(CUG)60; details: in vivo
From the text: FIG. 15A-C. Rescuing disease phenotypes in DM1 Drosophila with ligands 2 and 9. […] The error bars represent the standard deviation of three independent experiments (“(CTG)60” is disclosed as SEQ ID NO: 5).

[4] = system: SV40 terminator mRNA in i(CUG)60 larvae; experiment: SV40 mRNA level in i(CUG)60 larvae (real-time PCR); format: in vivo, Drosophila; details: 400 μM

N=C(NCCCCNc1nc(N)nc(N)n1)c1ccc(C(=N)NCCCCNc2nc(N)nc(N)n2)cc1 [Ligand 2]
average crawling speed [1]: ca. 13 lines/min | rescue of splicing defect of IR minigene (earlier work) [2]: partially rescued | KI, inhibition of MBNL binding (MBNL1-CUGexp complex): low micromolar | binding affinity toward d(CTG.CAG)12 by ITC (d(CTG.CAG)12): lack of binding affinity | effects on larval locomotion and eyes of i(CUG)60 Drosophila [3]: no effects | SV40 mRNA levels in larvae having i(CUG)60 [4]: no change
